This assay deals with human Nav 1.8 (Homo sapiens, UniProt Q9Y5Y9). Kind of assay: E-VIPR assay detecting and measuring Nav inhibition (HEK cells expressing truncated human Nav 1.8). Format: cell-based. The method in brief:
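HEK cells expressing truncated human Nav1.8, transduced with KIR2.1 BacMam, were loaded with CC2-DMPE/DiSBAC6(3) FRET dyes and tested under electrical stimulation (E-VIPR). Compounds were run as 11-point 3-fold dilutions, top 300 nM final, 0.625% DMSO, with or without 25% human serum.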

Where [1] appears, read: in the Presence of Human Serum in the E-VIPR Assay, read-out: IC50.
Where [2] appears, read: in the Presence of Human Serum in the E-VIPR Assay.
Where [3] appears, read: in the Absence of Human Serum in the E-VIPR Assay, read-out: IC50.

Molecules are shown by their SMILES. Where two headings read alike, the source gives them in different places.

In general, IC50 refers to the concentration that gives 50% inhibition.

human Nav 1.8, sequence (Q9Y5Y9 whole entry, looked up, the tested form may be a part): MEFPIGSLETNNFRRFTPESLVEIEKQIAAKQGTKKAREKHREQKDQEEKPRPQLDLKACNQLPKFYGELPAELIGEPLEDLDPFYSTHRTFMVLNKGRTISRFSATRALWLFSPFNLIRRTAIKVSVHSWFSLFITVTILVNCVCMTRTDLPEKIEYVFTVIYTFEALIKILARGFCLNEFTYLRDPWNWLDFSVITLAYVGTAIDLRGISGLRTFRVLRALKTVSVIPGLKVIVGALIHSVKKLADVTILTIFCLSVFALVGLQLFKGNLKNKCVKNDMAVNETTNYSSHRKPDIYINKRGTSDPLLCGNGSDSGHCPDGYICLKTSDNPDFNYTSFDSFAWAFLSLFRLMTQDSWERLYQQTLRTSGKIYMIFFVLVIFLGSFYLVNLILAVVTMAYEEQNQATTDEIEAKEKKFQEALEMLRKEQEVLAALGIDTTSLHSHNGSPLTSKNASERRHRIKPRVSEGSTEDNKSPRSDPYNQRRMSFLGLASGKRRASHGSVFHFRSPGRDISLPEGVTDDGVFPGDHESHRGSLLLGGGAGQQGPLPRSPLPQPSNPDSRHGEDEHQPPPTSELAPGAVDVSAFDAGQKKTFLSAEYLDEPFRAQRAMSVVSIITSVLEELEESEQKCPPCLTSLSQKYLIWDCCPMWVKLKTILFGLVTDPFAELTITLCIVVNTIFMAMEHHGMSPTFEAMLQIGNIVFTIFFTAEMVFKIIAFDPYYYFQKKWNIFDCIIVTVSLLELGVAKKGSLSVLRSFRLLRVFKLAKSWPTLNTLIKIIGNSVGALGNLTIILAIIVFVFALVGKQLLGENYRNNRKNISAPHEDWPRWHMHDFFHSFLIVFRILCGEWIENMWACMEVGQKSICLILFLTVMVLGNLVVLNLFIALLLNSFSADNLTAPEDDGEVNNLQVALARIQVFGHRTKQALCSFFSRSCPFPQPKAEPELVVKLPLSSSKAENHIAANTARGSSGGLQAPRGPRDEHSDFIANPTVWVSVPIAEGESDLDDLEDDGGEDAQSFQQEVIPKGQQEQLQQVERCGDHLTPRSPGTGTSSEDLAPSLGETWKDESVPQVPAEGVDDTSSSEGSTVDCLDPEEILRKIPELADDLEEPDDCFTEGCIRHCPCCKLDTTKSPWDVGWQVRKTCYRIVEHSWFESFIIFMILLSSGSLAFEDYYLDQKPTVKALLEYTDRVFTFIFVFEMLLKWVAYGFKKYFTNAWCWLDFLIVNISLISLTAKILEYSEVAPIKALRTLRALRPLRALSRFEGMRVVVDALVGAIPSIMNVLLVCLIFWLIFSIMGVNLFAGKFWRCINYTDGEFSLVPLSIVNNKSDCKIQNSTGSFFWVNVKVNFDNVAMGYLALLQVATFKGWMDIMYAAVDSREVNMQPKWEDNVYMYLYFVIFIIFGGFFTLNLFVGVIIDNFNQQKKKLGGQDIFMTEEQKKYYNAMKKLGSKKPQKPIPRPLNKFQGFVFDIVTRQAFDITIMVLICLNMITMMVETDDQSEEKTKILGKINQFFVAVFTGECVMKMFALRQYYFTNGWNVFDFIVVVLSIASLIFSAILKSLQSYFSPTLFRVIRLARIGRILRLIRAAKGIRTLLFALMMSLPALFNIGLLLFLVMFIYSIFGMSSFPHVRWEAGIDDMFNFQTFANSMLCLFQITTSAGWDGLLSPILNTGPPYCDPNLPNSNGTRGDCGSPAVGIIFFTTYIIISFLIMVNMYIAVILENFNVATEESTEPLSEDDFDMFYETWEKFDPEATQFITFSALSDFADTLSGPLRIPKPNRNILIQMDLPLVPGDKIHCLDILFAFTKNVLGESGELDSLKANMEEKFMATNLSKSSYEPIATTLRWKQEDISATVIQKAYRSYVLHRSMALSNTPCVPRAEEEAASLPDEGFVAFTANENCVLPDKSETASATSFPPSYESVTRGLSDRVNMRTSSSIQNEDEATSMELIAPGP

In the case of `C[C@@H]1[C@H](c2ccc(F)cc2OC(F)F)[C@@H](C(=O)Nc2ccnc(C(N)=O)c2)O[C@]1(C)C(F)(F)F` (stereo in doubt) [Compound 1, rel-(2S,3R,4R,5S)-4-[[3-[2-(difluoromethoxy)-4-fluoro-phenyl]-4,5-dimethyl-5-(trifluoromethyl)tetrahydrofuran-2-carbonyl]amino]pyridine-2-carboxamide], the IC50 under setting [1] lay within 10 to 100 nM.

With `CC[C@H]1[C@@H](c2ccc(F)c(F)c2OC)[C@H](C(=O)Nc2ccnc(C(N)=O)c2)O[C@@]1(C)C(F)(F)F` (single isomer, unassigned) [Compound 93], the half-inhibitory concentration (IC50) under setting [1] is below 10 nM.

As to `COc1c([C@@H]2[C@@H](C(=O)Nc3ccnc(C(N)=O)c3)O[C@@](C)(C(F)(F)F)[C@@H]2C)ccc(F)c1F` (racemic) [Compound 33, rac-(2S,3R,4R,5R)-4-[[3-(3,4-difluoro-2-methoxy-phenyl)-4,5-dimethyl-5-(trifluoromethyl)tetrahydrofuran-2-carbonyl]amino]pyridine-2-carboxamide], the 50% inhibitory concentration (IC50) under setting [2] was in the range of 100 to 1000 nM.

For `C[C@@H]1[C@H](c2ccc(F)cc2OC(F)F)[C@@H](C(=O)Nc2ccc(F)c(C(N)=O)c2)O[C@]1(C)C(F)(F)F` (single isomer, unassigned) [Compound 31], under setting [1], the concentration for half-maximal inhibition (IC50) is above 1000 nM.

With `COc1c([C@@H]2[C@@H](C(=O)Nc3ccnc(C(N)=O)c3)OC(C)(C)[C@@H]2C)ccc(F)c1F` (single isomer, unassigned) [Compound 106], the half-maximal inhibitory concentration (IC50) under setting [1] is above 1000 nM.

Take `COc1c([C@@H]2[C@@H](C(=O)Nc3ccnc(C(N)=O)c3)O[C@](C)(C(F)(F)F)[C@@H]2C)ccc(F)c1F` [Compound 6, (2S,3R,4R,5S)-4-[[3-(3,4-difluoro-2-methoxy-phenyl)-4,5-dimethyl-5-(trifluoromethyl)tetrahydrofuran-2-carbonyl]amino]pyridine-2-carboxamide]: the IC50 under setting [2] was above 1000 nM.

Turning to `COc1c([C@H]2[C@@H](C)[C@@H](C)O[C@@H]2C(=O)Nc2ccnc(C(N)=O)c2)ccc(F)c1F` (stereo in doubt) [Compound 107, rel-(2S,3R,4R,5R)-4-[[3-(3,4-difluoro-2-methoxy-phenyl)-4,5-dimethyl-tetrahydrofuran-2-carbonyl]amino]pyridine-2-carboxamide], the IC50 under setting [1] was above 1000 nM.

For the compound `COc1c([C@@H]2[C@@H](C)[C@@](C)(C(F)F)O[C@H]2C(=O)Nc2ccnc(C(N)=O)c2)ccc(F)c1F` (stereo in doubt) [Compound 96, rel-(2R,3S,4R,5S)-4-[[3-(3,4-difluoro-2-methoxy-phenyl)-5-(difluoromethyl)-4,5-dimethyl-tetrahydrofuran-2-carbonyl]amino]pyridine-2-carboxamide], the IC50 under setting [1] was above 1000 nM.

Consider `Cc1cnc(C(N)=O)cc1NC(=O)[C@@H]1O[C@@](C)(C(F)(F)F)[C@@H](C)[C@H]1c1ccc(F)c(F)c1OC(F)F` (stereo in doubt) [Compound 150, rel-(2R,3S,4S,5R)-4-[[3-[2-(difluoromethoxy)-3,4-difluoro-phenyl]-4,5-dimethyl-5-(trifluoromethyl)tetrahydrofuran-2-carbonyl]amino]-5-methyl-pyridine-2-carboxamide], for which the IC50 under setting [1] is above 1000 nM.

For `COc1nc(C(F)(F)F)ccc1[C@H]1[C@H](C(=O)Nc2ccnc(C(N)=O)c2)O[C@@](C)(C(F)(F)F)[C@H]1C` (stereo in doubt) [Compound 138, rel-(2R,3S,4S,5R)-4-[[3-[2-methoxy-6-(trifluoromethyl)-3-pyridyl]-4,5-dimethyl-5-(trifluoromethyl)tetrahydrofuran-2-carbonyl]amino]pyridine-2-carboxamide], the IC50 under setting [1] was in the range of 10 to 100 nM.

As for `COc1c([C@H]2[C@H](C(=O)Nc3ccnc(C(N)=O)c3)OC(C)(C)[C@H]2C)ccc(F)c1F` (single isomer, unassigned) [Compound 105], the half-inhibitory concentration (IC50) under setting [1] lay in the range of 10 to 100 nM.

In the case of `COc1nc(C(F)F)ccc1[C@H]1[C@H](C(=O)Nc2ccnc(C(N)=O)c2)O[C@@](C)(C(F)(F)F)[C@H]1C` (stereo in doubt) [Compound 140, rel-(2R,3S,4S,5R)-4-[[3-[6-(difluoromethyl)-2-methoxy-3-pyridyl]-4,5-dimethyl-5-(trifluoromethyl)tetrahydrofuran-2-carbonyl]amino]pyridine-2-carboxamide], the half-maximal inhibitory concentration (IC50) under setting [3] was in the range of 10 to 100 nM.

As for `COc1c([C@@H]2C[C@H](C(F)(F)F)O[C@H]2C(=O)Nc2ccnc(C(N)=O)c2)ccc(F)c1C` (single isomer, unassigned) [Compound 112], the IC50 under setting [1] lay within 100 to 1000 nM.

Consider `C[C@H]1[C@@H](c2ccc(F)cc2OC(F)F)[C@H](C(=O)Nc2ccc(F)c(C(N)=O)c2)O[C@@]1(C)C(F)(F)F` (single isomer, unassigned) [Compound 32], for which the IC50 under setting [1] was below 10 nM.

As for `CNC(=O)c1cc(NC(=O)[C@H]2O[C@@](C)(C(F)(F)F)C[C@@H]2c2ccc(F)c(Cl)c2OC)ccn1` (single isomer, unassigned) [Compound 61], the IC50 under setting [1] is 100 to 1000 nM.

In the case of `COc1c([C@H]2[C@H](C(=O)Nc3cc(C(N)=O)ncc3C)O[C@@](C)(C(F)(F)F)[C@H]2C)ccc(F)c1F` [Compound 119, 4-[[(2R,3S,4S,5R)-3-(3,4-difluoro-2-methoxy-phenyl)-4,5-dimethyl-5-(trifluoromethyl)tetrahydrofuran-2-carbonyl]amino]-5-methyl-pyridine-2-carboxamide], the IC50 under setting [3] is below 10 nM.

Consider `COc1cc(F)ccc1[C@@H]1[C@@H](C)[C@@](C)(C(F)(F)F)O[C@H]1C(=O)Nc1ccnc(C(N)=O)c1` (single isomer, unassigned) [Compound 36], for which, under setting [1], the IC50 was above 1000 nM.

In the case of `C[C@H]1[C@@H](c2ccc(F)c(F)c2OC(F)F)[C@H](C(=O)Nc2cc[n+]([O-])c(C(N)=O)c2)O[C@@]1(C)C(F)(F)F` [Compound 18, (2R,3S,4S,5R)-4-[[3-[2-(difluoromethoxy)-3,4-difluoro-phenyl]-4,5-dimethyl-5-(trifluoromethyl)tetrahydrofuran-2-carbonyl]amino]-1-oxido-pyridin-1-ium-2-carboxamide], the IC50 under setting [1] was below 10 nM.

For the compound `COc1c([C@H]2[C@H](C(=O)Nc3cncc(C(N)=O)c3)O[C@@](C)(C(F)(F)F)[C@H]2C)ccc(F)c1F` [Compound 118, 5-[[(2R,3S,4S,5R)-3-(3,4-difluoro-2-methoxy-phenyl)-4,5-dimethyl-5-(trifluoromethyl)tetrahydrofuran-2-carbonyl]amino]pyridine-3-carboxamide], the IC50 under setting [3] was below 10 nM.

Take `CNC(=O)c1cc(NC(=O)[C@H]2O[C@](C)(C(F)(F)F)[C@H](C)[C@@H]2c2ccc(F)cc2OC(F)F)ccn1` (single isomer, unassigned) [Compound 29]: the IC50 under setting [1] is above 1000 nM.

With `CC(C)Oc1c([C@H]2[C@H](C(=O)Nc3ccnc(C(N)=O)c3)O[C@@](C)(C(F)(F)F)[C@H]2C)ccc(F)c1F` (single isomer, unassigned) [Compound 89], the IC50 under setting [1] was below 10 nM.

Turning to `COc1c([C@@H]2[C@@H](C(=O)Nc3ccnc(C(N)=O)c3)O[C@@](C)(C(F)F)[C@H]2C)ccc(F)c1F` (stereo in doubt) [Compound 97, rel-(2S,3R,4S,5R)-4-[[3-(3,4-difluoro-2-methoxy-phenyl)-5-(difluoromethyl)-4,5-dimethyl-tetrahydrofuran-2-carbonyl]amino]pyridine-2-carboxamide], the IC50 under setting [1] was above 1000 nM.

The values above are taken from US11919887B2, “Substituted tetrahydrofurans as modulators of sodium channels” (Vertex Pharmaceuticals Incorporated, priority 2019, dated 2024).
